Laboratory results: article PMC6718736, “Validation of in vitro methods for human cytochrome P450 enzyme induction: Outcome of a multi-laboratory study” (Toxicology in Vitro, 2019)
Where two headings read alike, the source gives them in different places.

Tests used:
[1] = Solubility by nephelometry (EURL ECVAM); format: physicochemical
From the text: In addition to the visual inspection performed by the validation laboratories as described in the SOP, EURL ECVAM introduced nephelometry for systematic solubility determination of the 13 validation set chemicals. Nephelometry uses a laser beam and the principle of Tyndall effect light scatter to detect turbidity due to insolubility. The nephelometer method used formazin as reference item (1, 5, 10 and 20 nephelometric turbidity units (NTU)) to calculate the relative turbidity (RTU) of the validation set of chemicals. To the naked eye, 20 NTU is perceptible, while the nephelometer was sensitive to 5 NTU, with 1 NTU equivalent to background (solvent/medium blank).

[2] = tested on: CYP2B6; conditions: cited from earlier work
[3] = tested on: CYP3A4; assay: CYP3A4 enzyme induction assay in cryopreserved HepaRG cells (midazolam probe, LC/MS); format: in vitro ADME, human; conditions: for Assigned classification CYP3A4: HepaRG; for Assigned classification CYP3A4: key: 1=Positive=inducer; 0=Negative=non-inducer
[4] = tested on: CYP3A4; assay: CYP3A4 enzyme induction assay in cryopreserved primary human hepatocytes (PHH); conditions: for Assigned classification CYP3A4: PHH
[5] = tested on: CYP; conditions: CYP isoforms induced; ref Abadie et al. (2009), Richert et al. (2010), Preissner et al. (2010), Hoffmann et al. (2014); cited from earlier work
[6] = tested on: CYP3A4; conditions: cited from earlier work
[7] = cited from earlier work
[8] = tested on: CYP1A2; assay: CYP1A2 enzyme induction assay in cryopreserved HepaRG cells (phenacetin probe, LC/MS); format: in vitro ADME, human; conditions: for Assigned classification CYP1A2: HepaRG; for Assigned classification CYP1A2: key: 1=Positive=inducer; 0=Negative=non-inducer
[9] = tested on: CYP1A2; conditions: cited from earlier work
[10] = Solubility by visual inspection (DMSO stock solution and assay medium); format: physicochemical; conditions: assay medium
Description: The SOPs relied on visual inspection for solubility observation. […] The absence of precipitation in the medium was checked pre- and post-incubation (24 hours) by centrifugation of the sample and observation of any precipitation (pellet residue).

[11] = tested on: CYP1A2; assay: CYP1A2 enzyme induction assay in cryopreserved primary human hepatocytes (PHH); format: in vitro ADME; conditions: for Prediction in vivo inducer: Cmax/F2 >0.5 criterion; for Assigned classification CYP1A2: PHH;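 for Assigned classification CYP1A2: code 1 means positive inducer and 0 means non-inducer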
[12] = tested on: CYP2B6; assay: CYP2B6 enzyme induction assay in cryopreserved primary human hepatocytes (PHH); format: in vitro ADME; conditions: for Assigned classification CYP2B6: PHH;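 for Assigned classification CYP2B6: code 1 means positive inducer and 0 means non-inducer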
[13] = tested on: CYP2B6; assay: CYP2B6 enzyme induction assay in cryopreserved HepaRG cells (bupropion probe, LC/MS); format: in vitro ADME, human; conditions: for Prediction in vivo inducer: Cmax/F2 >0.5 criterion; for Assigned classification CYP2B6: HepaRG; for Assigned classification CYP2B6: key: 1=Positive=inducer; 0=Negative=non-inducer
[14] = human in vivo, CYP named without remark = induced, ref references in the cell, Washington University database, Hoffmann et al. (2014), Pelkonen et al. (2008), Hukkanen et al. (2012)

O=C1NC(=O)C(c2ccccc2)(c2ccccc2)N1 [Phenytoin sodium]
36.5 µM: F2 ([8]; CYP1A2, HepaRG cells, in vitro concentration producing 2-fold induction)
correctly classified: Prediction in vivo inducer ([13]; CYP2B6, HepaRG cells, listed as phenytoin)
40 µg/mL: HepaRG medium stability ([1]; ECVAM nephelometry, HepaRG medium, ^2 = solubility limit) | HepaRG medium stability ([10]; Lab 1, visual observation) | HepaRG medium stability ([10]; Lab 3, visual observation) | PHH medium stability ([10]; Lab 4, visual observation)
CYP2B6: CYP induction in vivo literature reference: CYP2B6 [2, 14]
10 µg/mL: PHH medium stability ([10]; Lab 6, visual observation)
1.80 to 16.2 µM: F2 ([4]; CYP3A4, PHH)
16.2 to 48.6 µM: F2 ([11]; CYP1A2, PHH, in vitro concentration producing 2-fold induction)
CYP3A4: CYP induction in vivo literature reference: CYP3A4 [6, 14]
insoluble suspensions: nephelometry finding in assay medium ([1]; 40 μg/ml, the two media)
CYP1A2: CYP induction in vivo literature reference: CYP1A2 [9, 14]
1.35 µM: F2 ([13]; CYP2B6, HepaRG cells, in vitro concentration producing 2-fold induction)
positive: Prediction in vivo inducer ([12]; CYP2B6, PHH, Cmax/F2 >0.5 criterion)
0: Assigned classification CYP3A4 ([4]; Lab 1, batch 4 0 8) | Assigned classification CYP1A2 ([8]; Lab 3, batch 35) | Assigned classification CYP1A2 ([11]; Lab 1, batch 4 0 8) | Assigned classification CYP1A2 ([11]; Lab 1, batch 8 0 8) | Assigned classification CYP1A2 ([11]; Lab 2, batch 4 0 8) | Assigned classification CYP1A2 ([11]; Lab 2, batch 8 0 8) | Assigned classification CYP1A2 ([11]; Lab 3, batch 8 0 8) | Assigned classification CYP2B6 ([12]; Lab 1, batch 8 0 8) | Assigned classification CYP2B6 ([12]; Lab 2, batch 8 0 8)
Yes: Induction in vivo ([2]; CYP2B6, human in vivo reference classification) | Induction in vivo ([2]; CYP2B6, human, ref Table 1) | Induction in vitro ([3]; CYP3A4, HepaRG cells) | Prediction in vivo inducer ([3]; CYP3A4, HepaRG cells) | Induction in vitro ([4]; CYP3A4, PHH) | Prediction in vivo inducer ([4]; CYP3A4, PHH) | Induction in vivo ([6]; CYP3A4, human in vivo reference classification (Table 11)) | Prediction in vivo inducer ([8]; CYP1A2, HepaRG cells, Cmax/F2 >0.5 criterion) | Induction in vitro ([8]; CYP1A2, HepaRG cells, positive in one batch in each of the three laboratories) | Induction in vivo ([9]; CYP1A2, human, ref Table 1) | Prediction in vivo inducer ([11]; CYP1A2, PHH, listed as Phenytoin) | Induction in vitro ([11]; CYP1A2, PHH, positive in one donor in each of the three laboratories) | Induction in vitro ([12]; CYP2B6, PHH) | Prediction in vivo inducer ([12]; CYP2B6, PHH) | Prediction in vivo inducer ([13]; CYP2B6, HepaRG cells, listed as Phenytoin) | Induction in vitro ([13]; CYP2B6, HepaRG cells, positive in one batch in each of the three laboratories)
20 µg/mL: PHH medium stability ([1]; ECVAM nephelometry, PHH medium, ^2 = solubility limit) | HepaRG medium stability ([10]; Lab 2, visual observation) | PHH medium stability ([10]; Lab 5, visual observation)
12.2 µM: F2 ([3]; CYP3A4, HepaRG cells)
CYP1A2, CYP2B6, CYP3A4: CYP induction in vitro (human hepatocytes) [5]
0.60 to 48.6 µM: F2 ([12]; CYP2B6, PHH)
40 to 80 µM: Cmax ([7]; human in vivo plasma concentration, normal dose) | Cmax ([7]; human in vivo, normal dose (Table 10))
1: Assigned classification CYP3A4 ([3]; Lab 1, batch 20) | Assigned classification CYP3A4 ([3]; Lab 1, batch 35) | Assigned classification CYP3A4 ([3]; Lab 1, batch 36) | Assigned classification CYP3A4 ([3]; Lab 2, batch 20) | Assigned classification CYP3A4 ([3]; Lab 2, batch 35) | Assigned classification CYP3A4 ([3]; Lab 2, batch 36) | Assigned classification CYP3A4 ([3]; Lab 3, batch 20) | Assigned classification CYP3A4 ([3]; Lab 3, batch 35) | Assigned classification CYP3A4 ([3]; Lab 3, batch 36) | Assigned classification CYP3A4 ([4]; Lab 1, batch 0 6 A) | Assigned classification CYP3A4 ([4]; Lab 1, batch 8 0 8) | Assigned classification CYP3A4 ([4]; Lab 2, batch 0 6 A) | Assigned classification CYP3A4 ([4]; Lab 2, batch 4 0 8) | Assigned classification CYP3A4 ([4]; Lab 2, batch 8 0 8) | Assigned classification CYP3A4 ([4]; Lab 3, batch 0 6 A) | Assigned classification CYP3A4 ([4]; Lab 3, batch 4 0 8) | Assigned classification CYP3A4 ([4]; Lab 3, batch 8 0 8) | Assigned classification CYP1A2 ([8]; Lab 1, batch 20) | Assigned classification CYP1A2 ([8]; Lab 1, batch 35) | Assigned classification CYP1A2 ([8]; Lab 1, batch 36) | Assigned classification CYP1A2 ([8]; Lab 2, batch 20) | Assigned classification CYP1A2 ([8]; Lab 2, batch 35) | Assigned classification CYP1A2 ([8]; Lab 2, batch 36) | Assigned classification CYP1A2 ([8]; Lab 3, batch 20) | Assigned classification CYP1A2 ([8]; Lab 3, batch 36) | Assigned classification CYP1A2 ([11]; Lab 1, batch 0 6 A) | Assigned classification CYP1A2 ([11]; Lab 2, batch 0 6 A) | Assigned classification CYP1A2 ([11]; Lab 3, batch 0 6 A) | Assigned classification CYP1A2 ([11]; Lab 3, batch 4 0 8) | Assigned classification CYP2B6 ([12]; Lab 1, batch 0 6 A) | Assigned classification CYP2B6 ([12]; Lab 1, batch 4 0 8) | Assigned classification CYP2B6 ([12]; Lab 2, batch 0 6 A) | Assigned classification CYP2B6 ([12]; Lab 2, batch 4 0 8) | Assigned classification CYP2B6 ([12]; Lab 3, batch 0 6 A) | Assigned classification CYP2B6 ([12]; Lab 3, batch 4 0 8) | Assigned classification CYP2B6 ([12]; Lab 3, batch 8 0 8) | Assigned classification CYP2B6 ([13]; Lab 1, batch 20) | Assigned classification CYP2B6 ([13]; Lab 1, batch 35) | Assigned classification CYP2B6 ([13]; Lab 1, batch 36) | Assigned classification CYP2B6 ([13]; Lab 2, batch 20) | Assigned classification CYP2B6 ([13]; Lab 2, batch 35) | Assigned classification CYP2B6 ([13]; Lab 2, batch 36) | Assigned classification CYP2B6 ([13]; Lab 3, batch 20) | Assigned classification CYP2B6 ([13]; Lab 3, batch 35) | Assigned classification CYP2B6 ([13]; Lab 3, batch 36)
correctly predicted CYP1A2 induction: Prediction in vivo inducer ([11]; CYP1A2, PHH, listed as phenytoin)
